In patent US20190358138A1, “A PERSONAL CARE COMPOSITION” (Conopco, Inc., d/b/a UNILEVER, priority 2017, published 2019):

How the values were obtained:
interleukin (IL)-6 = test: THP-1 in vitro anti-inflammation assay: IL-6 ELISA in supernatant of PMA-differentiated, LPS-treated THP1-XBlue cells; type: cell-based; conditions: 24 hours, LPS alone 24176
Description: The following procedure was used to test the anti-inflammation efficacy of the actives.
THP1-XBlue™ (Cat No: thpx-sp, InvivoGen) cells were cultured as a suspension in RPMI 1640 medium supplemented with 10% FBS, penicillin (10 U/mL)—streptomycin (10 μg/ML). Cells were differentiated in 24-well plates at the density of 5×10^5 cells/well with 100 nM PMA for 72 hours. Cells were then co-treated with pure E. coli lipopolysaccharides (LPS) and with active. After 24 hours, the supernatants were collected and measured for interleukin (IL)-6 as pro-inflammatory bio-marker using enzyme-linked immunosorbent assay (ELISA).

[1] = system: store-operated Ca^2+ entry (SOCE); test: Store-operated Ca2+ entry (SOCE) in isolated human eccrine sweat glands, thapsigargin-induced, Fura-2 340:380 ratio; type: cell-based; conditions: for IC50: half-maximal concentration from dose-response curve, isolated eccrine glands, 1 μM thapsigargin; for inhibition at 10 µM: reduction in 340:380 ratio at maximal inhibitor concentration 10^−5M, as % of control response, read-out: Potency (% inhibition at 10^−5M)
Description: Isolation of Human Eccrine Sweat Glands
Viable human eccrine sweat glands were isolated from samples of human skin (obtained under ethical consent).
Measurement of Intracellular Ca^2+ Concentration
Intracellular [Ca^2+]i was measured in isolated eccrine glands by plating them onto Matrigel coated glass coverslips and loading them with the calcium-sensitive, fluorescent dye Fura-2 by incubation (30-45 minutes, 37° C.) with the membrane-permeant, acetoxymethyl ester form of the dye (Fura-2AM). These coverslips (with dye-loaded glands) were then mounted in a small chamber attached to the stage of an inverted microscope, and the glands superfused (ca. 5 ml minute^−1, 37° C.) with physiological salt solution (PSS; composition (mM): NaCl 130, KCl 5, MgCl2 1, CaCl2 1, HEPES 20, D-Glucose 10, pH 7.4 with NaOH). Changes in [Ca^2+]i were detected using 340/380 nm excitation and 510 nm emission wavelengths, and data expressed as the 340:380 ratio.
Measurement of Store-Operated Ca^2+ Entry (SOCE)
To measure store-operated calcium entry (SOCE), independent of external membrane receptor activation, the following assay protocol was used. First, isolated glands were exposed to 1 μM thapsigargin in Ca^2+-free PSS for 3 minutes. As thapsigargin inhibits the Ca^2+-ATPase uptake pathway in intracellular Ca^2+ stores, this enables Ca^2+ to leak out of the store and subsequently trigger the activation of SOCE. In Ca^2+-free PSS, this process is represented by a very small rise in [Ca^2+]i. Glands were then exposed to 1 μM thapsigargin in Ca^2+-containing PSS for 2 minutes, thereby inducing a rapid increase in [Ca^2+]i via Ca^2+ entry into the cells via the open SOCE pathway. To complete the protocol, thapsigargin is finally removed by washing the glands with Ca^2+ -containing PSS, and allowing the resting [Ca^2+]i level to re-establish itself, and the intracellular Ca^2+ stores to refill. The effectiveness of selected SOCE channel inhibitors were assessed by repeating the above procedure in the presence of the inhibitor (at a chosen concentration) from the time at which thapsigargin was added to release the intracellular Ca^2+ stores, until the cells were finally washed following the Ca^2+ peak initiated by Ca^2+ entry. Dose-response curves were constructed for each inhibitor and the half-maximal concentration (IC50) determined. The potency of each inhibitor was also assessed by expressing the reduction in the 340:380 ratio observed at the maximum concentration (10^−5M) as a % of the control response (i.e. in the absence of inhibitor; see Table 1).

[2] = 20 μM active co-treated with E. coli LPS

IC50 [1]	Structure (SMILES)	Concentration of IL-6 (interleukin (IL)-6; [2])	inhibition at 10 µM [1]	Concentration of IL-6 (interleukin (IL)-6; 10 μM active co-treated with E. coli LPS)
91.2 nM	COc1cc(CCC(O)CC(O)CCc2ccc(O)c(OC)c2)ccc1O (stereo not drawn) [Formula 4, 1,7-bis(4-hydroxy-3-methoxyphenyl) heptane-3,5-diol]	18218 pg/mL	75.4%	
138 nM	COc1ccc(CCC(O)C(C)(C)C(O)CCc2ccc(OC)c(OC)c2)cc1OC (stereo not drawn) [Formula 5, 1,7-bis (3,4-dimethoxyphenyl)-4,4-dimethylheptane-3,5-diol]	9142 pg/mL	76%	14880 pg/mL
24 nM	COc1ccc(/C=C/C(=O)C(C)(C)C(=O)/C=C/c2ccc(OC)c(OC)c2)cc1OC [Formula 2]		99%	
